Legend:
[1] = tested on: mouse lymphoma YAC-1 cells; assay: Cytotoxic activity of spleen NKT cells against tumor cells (4 hour 51Cr-release) after i.v. administration to RAG-1KO/Vα14tg/Vβ8.2tg mice; assay type: in vivo; conditions: 100 μg/kg i.v., spleen taken 24 hours later, FIG. 1
Experimental: A vehicle (physiological saline containing 0.025% Polysolvate 20) or 100 μg/kg of KRN 7000 was intravenously administered to RAG-1KO/Vα14tg/Vβ8.2tg mice (bearing a large number of NKT cells but not B cells, T cells or NK cells in their lymphocyte fraction), and 24 hours later, the spleen was taken out from each mouse to prepare spleen cells by conventional methods. RAG-1KO/Vαl14tg/Vβ8.2tg mice were established by deletion of the RAG-1 gene and forcible expression of Vα14 and Vβ8.2 gene (Kawano T. et al., Science, 278, 1626-1629 (1997)). Thesemice are available from Masaru Taniguchi, School of Medicine, Chiba University. Cytotoxic activity of these spleen cells to mouse lymphoma YAC-1 cells was studied by the 4 hour-^51Cr-release method (Kobayashi, E. et al., Oncology Res., 7, 529 ([…])).

MRL lpr/lpr mice = assay: Survival period of MRL lpr/lpr mice; assay type: in vivo, mouse; conditions: 100 μg/kg i.p. twice a week from the age of 5 weeks, 10 animals per group; all vehicle mice died within 250 days, FIG. 4
Experimental: Ten animals per group of female MRL lpr/lpr mice were used for the following experiment. MLR mice purchased at the age of 4 weeks were randomly divided into 2 groups (10 animals per group). A vehicle (a physiological saline solution containing 0.025% Polysolvate 20) or KRN 7000 (100 μg/kg) was intraperitoneally administered twice a week (on Tuesday and Friday) to the animals starting from the age of 5 weeks. Survival of the animals was observed every day.

[2] = tested on: 4% DSS-induced mouse colitis (CDF1 mice); assay: Suppression of 4% DSS-induced mouse colitis; assay type: in vivo; conditions: KRN 7000 100 μg/kg i.p. days 1, 5, 9, IL-12 1 μg/mouse i.p. days 1, 3, 5, 7, 9
Experimental: Ten animals per group of CDF1 mice (6 weeks of age, females) (Japan SLC Inc.) were used for the following experiment. Day 0 was defined as the day when a 4% DSS solution (4% (w/v) dextran sodium sulfate (DSS) dissolved in water) was first provided as drinking water. The animals were divided into 3 groups, i.e., a group to which 100 μg/kg of KRN 7000 were intraperitoneally administered on days 1, 5, and 9, a group to which 1 μg/mouse of IL-12 was intraperitoneally administered on days 1, 3, 5, 7 and 9, and an untreated (control) group. Body weight was measured and survival or death of the animals were observed daily. Changes in body weight and survival rate are shown in FIG. 5A and 5B, respectively.

[3] = tested on: C57BL/6 mice with MOG-induced EAE; assay: Suppression of the onset of experimental autoimmune encephalomyelitis (EAE); assay type: in vivo, mouse; conditions: 20 μg/kg i.p. on days 1, 5, 8, 12 and 15, FIG. 6B
Experimental: […]. Mice were immunized by subcutaneously injecting this emulsion on day 0 and day 7. Further, 500 ng of pertussis toxin were intraperitoneally administered on day 1 and […] induce experimental autoimmune encephalomyelitis (EAE) in mice. The animals were divided into 2 groups, i.e., a group to which 20 μg/kg of KRN 7000 were intraperitoneally administered on days 1, 5, 8, 12 and 15 and a group to which a vehicle (0.5%, Polysolvate 20) was administered in a similar manner. The level of EAE symptoms was observed every day.

NOD/ShiJic (NOD) mice = assay: Suppression of spontaneous diabetes onset in NOD mice; assay type: in vivo, mouse; conditions: 100 μg/kg i.p. twice a week from 7 weeks of age; control 80%, FIG. 7
Experimental: Ten animals per group of NOD/ShiJic (NOD) mice (6-week-old, females) (Japan Clea, Inc.) were used for the following experiment. […] The animals were divided into two groups, i.e., one group to which 100 μg/kg of KRN 7000 were intraperitoneally administered twice a week starting from 7-weeks of age, and an untreated control group. The presence and absence of diabetic symptoms was examined every week. The blood glucose level was measured using a glucometer (Miles Sankyo), and mice showing the value of more than 200 mg/dL twice consecutively were diagnosed to be diabetic.

Vα24+ NKT cells = assay: Stimulation of Vα24+ NKT cell proliferation, autologous mixed leukocyte reaction with treated antigen-presenting cells; assay type: cell-based, human; conditions: antigen-presenting cells treated with 100 ng/ml, FIG. 9
Experimental: Peripheral blood mononuclear cells of a normal human were cultured for 4 days in an AIM medium supplemented with 10% FCS with the addition of GM-CSF (400 U/ml), IL-4 (200 U/ml) and KRN 7000 (100 ng/ml) to prepare antigen-presenting cells.
An autologous mixed leukocyte reaction (MLR) was performed using these antigen-presenting cells as stimulator cells and autologous peripheral blood mononuclear cells as responder cells. After incubation for 10 days, IL-2 (5 U/ml) was added, incubation was continued for another 4 days, and the cells were harvested. Next, CD4, CD8 double negative cells were recovered from these harvested cells and subjected to the phenotype analysis. The phenotypic analysis was expressed by fluorescence intensity of labeled antibodies against cells having various phenotypes.
The cells were cultured using IL-2 (5 U/ml) to stimulate the proliferation of Vα24^+ NKT cells, which were used as responder cells in the following autologous mixed leukocyte reaction. Autologous peripheral blood mononuclear cells were cultured for 4 days with the addition of GM-CSF +IL-4 and 100 ng/ml of KRN 7000, AGL-583 (β-galactosylceramide, β-GalCer) or 0.1% DMSO (vehicle) to prepare antigen-presenting cells. An autologous mixed leukocyte reaction was carried out using these antigen-presenting cells as stimulator cells. […]

pregnant C57BL/6 mice = assay: Induction of abortion in pregnant C57BL/6 mice; assay type: in vivo, mouse
Experimental: (§1) C57BL/6 mice (Japan SLC) were used for the following experiment. The day when a vaginal plug was observed was defined as day 0. Pregnant mice were divided into 2 groups (6 mice per group), i.e., one group to which 150 μg/kg of KRN 7000 were intravenously administered on days 7, 8 and 9, and another to which PBS (phosphate-buffered saline) was administered in the same way. On day 12, the uterus was removed to observe the state of the embryo.

[4] = tested on: Vα14+ NKT-deficient (Jα281KO) mice; assay: Induction of abortion in Vα14+ NKT-deficient (Jα281KO) mice; assay type: in vivo, mouse; conditions: same amount, same manner, PBS group 5.0%
Experimental: as §1
When the same amount of KRN 7000 was administered to Vα14^+ NKT-deficient (Jα281KO) mice (Kawano, T. et al., Science, 278, 1626-1629 (1997)) in the same manner, the abortion rate was 5.3%, which was equivalent to that for the PBS-administered group (5.0%). The Vα14^+ NKT-deficient mice are available from Masaru Taniguchi, School of Medicine, Chiba University.

## CCCCCCCCCCCCCCCCCCCCCCCCCC(=O)N[C@@H](CO[C@H]1O[C@H](CO)[C@H](O)[C@H](O)[C@H]1O)[C@H](O)[C@H](O)CCCCCCCCCCCCCC [KRN 7000, (2S,3S,4R)-1-(α-D-galactopyranosyloxy)-2-hexacosanoylamino-3,4-octadecanediol]
[1]
  cytotoxic activity against YAC-1 cells of spleen cells vs vehicle-administered mice: significantly higher
MRL lpr/lpr mice
  mice surviving at 350 days after the start of the administration: three mice
[2]; FIG. 5A
  time of weight loss as compared with the control group: at a later period
[2]; FIG. 5B
  survival period as compared with the control group: significantly longer
[3]; 10 mice, vehicle: 80% died
  mice that died of EAE: 2
[3]; vehicle: all mice
  mice showing the EAE onset: 4 out of 10
NOD/ShiJic (NOD) mice
  mice that became diabetic at the age of 35 weeks: none
Vα24+ NKT cells
  effect of treated antigen presenting cells on Vα24+ NKT cell proliferation ([3H]thymidine uptake): marked stimulative effect
Pregnant C57BL/6 mice; 150 μg/kg i.v. on days 7, 8 and 9, uterus on day 12, of the total of 36 embryos
  embryos dead and resorbed: 12
Pregnant C57BL/6 mice; 150 μg/kg i.v. on days 7, 8 and 9, PBS group 5.6%
  abortion rate: 33%
[4]
  abortion rate: 5.3%

From US6531453B1, “NKT cell activators containing α-glycosylceramides” (Kirin Beera Kabushiki Kaisha, priority 1997, dated 2003)
